For two compounds, EC50 results are on record in patent US11207301B2, “Sphingosine 1 phosphate receptor agonists for neuroprotection” (RECEPTOS LLC, priority 2017, dated 2021).

Assay [1] deals with ERK phosphorylation in primary rat astrocytes. The assay is described as follows: ERK phosphorylation in primary rat astrocytes (MSD pERK assay). Type of assay: cell-based. The following applies: Astrocyte, 10 min, 10-minute exposure, mean of n=3. Here is the method: For the experiments using rat primary astrocytes, eight-point concentration-response curves were generated for AKT and ERK phosphorylation in primary rat astrocytes cultures in response to a 10-minute treatment with ozanimod (100 nM-46 pM), Compound 3 (10 nM-5 pM), Compound 1 (10 nM-5 pM), or FTY720-P (10 nM-5 pM). Phosphorylation of AKT and ERK was quantified using Meso Scale Discovery assay kits (MSD Mutli-Spot Phopho-AKT (Ser473) Assay Kit and MSD Multi-Spot MAP Kinase Phosphoprotein Assay Whole Cell Lysate Kit) and imaging platform. AKT and ERK phosphorylation within treated astrocytes were assessed as the mean change in signal intensity compared to DMSO vehicle and the half maximal effective concentration (EC50) was determined using non-linear regression.
Embryonic day18 (E18) rat cortices were purchased from BrainBits LLC. (Springfield, Ill.) and were cultured according to the supplier's protocol. Briefly, cortices were incubated at 37° C. for 10 minutes in activated papain solution before trituration in hibernation medium containing B27 supplement using a modified siliconized glass Pasteur pipette. The cell suspension was centrifuged at 1100×g for 1 minute at room temperature (RT). The cell pellet was then resuspended in NbAstro medium (BrainBits LLC.) and the live cell density was assessed using a cell counter. Primary cells were plated at a density of 7500 cells/cm2 in T75 tissue culture flasks coated with poly-D-lysine (PDL) in a total volume of 12 mL of NbAstro media, and incubated for 10-14 days at 37° C. 5% CO2. After 10-14 days, primary astrocytes in passage 0 (P0) that had reached confluency in the T75 flasks were detached using TrypLE detachment reagent, pelleted at 300×g, and plated into poly-d-lysine coated T225 flasks in 20 mL of NbAstro media, and incubated for another 7 days at 37° C. 5% CO2. After 7 days, primary P1 astrocytes in confluent T225 flasks were detached using TrypLE detachment reagent, pelleted at 300×g, and plated intopoly-d-lysine coated 96-well plates at 10,000 cells per well in 200 μL of NbAstro media, and incubated for 7 days at 37° C. 5% CO2. After 7 days, P2 primary astrocytes were utilized for pAKT and pERK assays.
The pERK (phosphorylated ERK)/pMAPkinase assay was performed according to the manufacturer's protocol. Briefly, MSD pERK/pMAPkinase plates were blocked for 1-2 hours by adding 150 μL of blocker A prepared in 1× Tris wash buffer. […] Following antibody incubation, plates were washed three times with 150 μL of 1× Tris wash buffer and 1× read buffer (150 μL/well) was added. Finally, the plates were read in the MSD imager platform to assess the pERK levels.
AKT and ERK phosphorylation data were analyzed by non-linear regression (GraphPad Prism, version 6) to determine the EC50 values.

The subject of assay [2] is ERK phosphorylation in primary human astrocytes. The assay is described as follows: ERK phosphorylation in primary human cortical astrocytes (AlphaLISA SureFire Ultra). Type of assay: cell-based. The following applies: Astrocyte, 10 min, 10-minute exposure, n=3-5. On the procedure: For the experiments using mouse and human primary astrocytes, ten-point concentration-response curves (90 nM-4.57 pM or 30 nM-1.52 pM) were generated for AKT and/or ERK phosphorylation in primary human and mouse cortical astrocytic cultures in response to a 10-minute treatment with ozanimod, Compound 3, Compound 1, or FTY720-P. AKT and ERK phosphorylation were quantified using AlphaLISA SureFire Ultra Assay kits and the EnVision Plate Reader. AKT and ERK phosphorylation within treated astrocytes were expressed as the mean change in signal intensity compared to the dimethyl sulfoxide (DMSO) vehicle and the half maximal effective concentration (EC50) was determined using non-linear regression.
Primary human astrocytes were purchased from ScienCell Research Laboratories, Inc. and cultured according to the supplier's protocol. The astrocytes were obtained from the human cerebral cortex, cryopreserved at passage one, and delivered frozen. The frozen vials of cells were gently thawed in a 37° C. water bath. Once the contents of the vial were completely thawed, the cell solution was dispensed into a poly-L-lysine (PLL) coated T75 tissue culture flask with 16 mL of human Astrocyte Media, (ScienCell Research Laboratories, Inc.) and incubated at 37° C. 5% CO2. Once the human astrocytes had reached confluency in the T75 flask, they were detached using trypsin/EDTA 0.25%, pelleted at 300×g, split into two PLL coated T225 tissue culture flasks in 40 mL of astrocyte media, and incubated at 37° C. 5% CO2. Once the astrocytes reached confluency in the T225 flasks, they were detached using trypsin/EDTA 0.25% solution, pelleted at 300×g, plated into poly-D-lysine (PDL) coated 96-well plates at a density of 10,000 cells per well in 200 μL human Astrocyte Media, and incubated at 37° C. 5% CO2. Half of the media was replenished every 3-4 days. After 5-7 days of incubation, the P2 human astrocyte plates were utilized for the pERK and pAKT assays.
Cell lysis and detection of pERK were performed according to the PerkinElmer AlphaLISA SureFire Ultra p-ERK1/2 (Thr202/TYR 204) assay protocol. Astrocytes were lysed in the 96-well plate following a 10 minute incubation with compounds with shaking at RT. The astrocytic lysates (10 μL/well) were transferred into a 384-well OptiPlate. As specified by the assay protocol, an acceptor bead mix and a donor bead mix (5 μL/well for each) were added to the plate under subdued light. Plates were sealed with adhesive plate seals and incubated in the dark for 2 hours at RT. The plates were read on the EnVision Plate Reader to assess the pERK levels.
The AKT and ERK phosphorylation data, collected by a Perkin Elmer EnVision Microplate Reader, was analyzed by non-linear regression (GraphPad Prism, version 7.03) to determine the EC50 values.
(Bead proximity is the source of the signal in Alpha formats.)

One may read the EC50 as the concentration at which the effect is half-maximal. A low value points to an effect from little substance. Consider `CC(C)Oc1ccc(-c2nc(-c3cccc4c3CC[C@@H]4NCCO)no2)cc1C#N` [Ozanimod], for which the results for the EC50 in assay [1] and in assay [2] were 0.8 nM and 1.93 nM, respectively.
For `CC(C)Oc1ccc(-c2nc(-c3cccc4c3CCC4=O)no2)cc1C#N` [Compound 1, 2-isopropoxy-5-(3-(1-oxo-2,3-dihydro-1H-inden-4-yl)-1,2,4-oxadiazol-5-yl)benzonitrile], in that order: 0.29 nM and 2.12 nM.
